Results from ChEMBL document CHEMBL1909046, “DrugMatrix in vitro pharmacology data”.

How the values were obtained:
[1] = biological target: Mitogen-activated protein kinase 3 (Homo sapiens, UniProt P27361); assay: DRUGMATRIX: Protein Serine/Threonine Kinase, ERK1 enzyme inhibition (substrate: Myelin Basic Protein); set-up: species or system Escherichia coli; settings: Not Active = under 50% inhibition at 10 µM
[2] = biological target: Melanocortin receptor 5 (Homo sapiens, UniProt P33032); format: cell membranes, HEK293, Membrane; settings: hek293; also: in other assays of this panel Not Active means under 50% inhibition at 10 µM
Melanocortin receptor 5, sequence (P33032 whole entry): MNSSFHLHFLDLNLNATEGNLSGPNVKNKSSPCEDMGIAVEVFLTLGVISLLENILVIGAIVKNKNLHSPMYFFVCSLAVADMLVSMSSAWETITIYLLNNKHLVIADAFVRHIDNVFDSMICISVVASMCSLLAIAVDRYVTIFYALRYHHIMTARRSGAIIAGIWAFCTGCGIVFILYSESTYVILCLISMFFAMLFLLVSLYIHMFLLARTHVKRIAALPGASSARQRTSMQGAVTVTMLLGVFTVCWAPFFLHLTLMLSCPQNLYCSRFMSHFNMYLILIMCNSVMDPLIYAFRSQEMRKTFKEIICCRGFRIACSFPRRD

[3] = biological target: Vascular endothelial growth factor receptor 1 (Homo sapiens, UniProt P17948); assay: biochemical; format: cell-based, HUVEC; settings: huvec; also: in other assays of this panel Not Active means under 50% inhibition at 10 µM
Vascular endothelial growth factor receptor 1, sequence (P17948 whole entry): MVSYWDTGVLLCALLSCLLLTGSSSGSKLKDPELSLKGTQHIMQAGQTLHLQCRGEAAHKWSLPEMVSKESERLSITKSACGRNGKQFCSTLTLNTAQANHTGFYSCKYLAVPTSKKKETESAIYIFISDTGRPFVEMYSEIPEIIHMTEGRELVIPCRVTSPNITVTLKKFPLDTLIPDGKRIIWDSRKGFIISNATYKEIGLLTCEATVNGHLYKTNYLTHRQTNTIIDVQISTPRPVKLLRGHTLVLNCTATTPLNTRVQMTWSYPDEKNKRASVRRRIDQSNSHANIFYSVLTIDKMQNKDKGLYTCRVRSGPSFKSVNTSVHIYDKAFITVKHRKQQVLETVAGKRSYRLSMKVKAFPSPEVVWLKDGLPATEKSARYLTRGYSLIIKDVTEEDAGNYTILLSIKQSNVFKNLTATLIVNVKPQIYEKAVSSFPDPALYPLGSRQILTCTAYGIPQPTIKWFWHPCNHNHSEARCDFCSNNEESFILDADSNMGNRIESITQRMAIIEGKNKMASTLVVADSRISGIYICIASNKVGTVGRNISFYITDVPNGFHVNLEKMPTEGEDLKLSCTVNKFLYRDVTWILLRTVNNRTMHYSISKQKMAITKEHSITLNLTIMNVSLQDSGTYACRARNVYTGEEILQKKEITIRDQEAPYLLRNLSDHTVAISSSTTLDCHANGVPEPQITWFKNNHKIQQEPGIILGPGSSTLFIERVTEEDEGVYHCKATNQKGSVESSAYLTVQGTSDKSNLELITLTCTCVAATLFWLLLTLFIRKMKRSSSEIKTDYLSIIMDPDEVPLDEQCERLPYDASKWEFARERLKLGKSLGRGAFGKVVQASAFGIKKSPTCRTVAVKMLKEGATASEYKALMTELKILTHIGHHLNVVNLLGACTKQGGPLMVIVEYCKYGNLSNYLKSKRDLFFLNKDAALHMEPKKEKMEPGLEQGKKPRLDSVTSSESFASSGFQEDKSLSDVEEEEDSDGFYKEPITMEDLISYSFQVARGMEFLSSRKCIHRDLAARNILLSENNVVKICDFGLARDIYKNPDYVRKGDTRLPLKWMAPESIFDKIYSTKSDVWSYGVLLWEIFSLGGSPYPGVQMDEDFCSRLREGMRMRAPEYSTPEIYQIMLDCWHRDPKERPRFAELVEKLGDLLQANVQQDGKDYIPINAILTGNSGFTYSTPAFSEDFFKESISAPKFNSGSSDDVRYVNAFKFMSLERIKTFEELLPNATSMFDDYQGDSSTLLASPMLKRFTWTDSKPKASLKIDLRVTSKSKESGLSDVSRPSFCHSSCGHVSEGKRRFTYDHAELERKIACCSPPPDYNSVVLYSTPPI

[4] = biological target: T1, Receptor-type tyrosine-protein phosphatase C (Homo sapiens, UniProt P08575); set-up: species or system Escherichia coli;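 also: inhibition of CD45 enzyme activity measured using DiFMUP as substrate; in other assays of this panel Not Active means under 50% inhibition at 10 µM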
T1 sequence (P08575 whole entry): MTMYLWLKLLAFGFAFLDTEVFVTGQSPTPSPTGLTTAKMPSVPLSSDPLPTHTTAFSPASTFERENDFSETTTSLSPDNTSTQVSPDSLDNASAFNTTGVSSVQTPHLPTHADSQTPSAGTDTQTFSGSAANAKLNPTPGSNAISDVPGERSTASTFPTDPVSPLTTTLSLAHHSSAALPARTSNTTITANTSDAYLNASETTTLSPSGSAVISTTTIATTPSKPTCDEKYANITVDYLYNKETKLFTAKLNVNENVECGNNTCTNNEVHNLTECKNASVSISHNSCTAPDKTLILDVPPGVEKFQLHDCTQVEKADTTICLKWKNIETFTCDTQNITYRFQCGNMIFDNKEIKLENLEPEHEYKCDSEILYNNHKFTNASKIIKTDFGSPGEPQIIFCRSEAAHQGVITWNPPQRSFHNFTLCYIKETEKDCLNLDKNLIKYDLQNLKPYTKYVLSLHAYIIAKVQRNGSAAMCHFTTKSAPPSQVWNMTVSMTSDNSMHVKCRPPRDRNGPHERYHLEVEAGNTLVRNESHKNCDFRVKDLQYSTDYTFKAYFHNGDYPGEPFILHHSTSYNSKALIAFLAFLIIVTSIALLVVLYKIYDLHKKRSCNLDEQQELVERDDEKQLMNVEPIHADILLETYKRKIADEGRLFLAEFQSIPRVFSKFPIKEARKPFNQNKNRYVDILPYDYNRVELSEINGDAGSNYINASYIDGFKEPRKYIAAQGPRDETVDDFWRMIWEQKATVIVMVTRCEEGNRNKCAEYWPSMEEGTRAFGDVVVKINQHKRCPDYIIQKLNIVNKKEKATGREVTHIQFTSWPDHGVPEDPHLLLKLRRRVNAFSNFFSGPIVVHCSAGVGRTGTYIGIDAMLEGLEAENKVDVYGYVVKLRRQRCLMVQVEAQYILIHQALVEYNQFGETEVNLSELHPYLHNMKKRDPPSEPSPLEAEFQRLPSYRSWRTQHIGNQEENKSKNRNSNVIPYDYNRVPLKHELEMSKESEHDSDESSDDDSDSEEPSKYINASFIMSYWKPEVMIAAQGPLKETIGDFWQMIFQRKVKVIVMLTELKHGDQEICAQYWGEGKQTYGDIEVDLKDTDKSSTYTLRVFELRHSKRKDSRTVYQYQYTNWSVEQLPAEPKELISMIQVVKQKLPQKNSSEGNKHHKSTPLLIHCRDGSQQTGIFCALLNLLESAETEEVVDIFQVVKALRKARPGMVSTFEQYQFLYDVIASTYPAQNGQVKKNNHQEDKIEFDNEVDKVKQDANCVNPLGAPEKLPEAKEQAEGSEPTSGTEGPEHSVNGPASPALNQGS

[5] = biological target: T2, Glucocorticoid receptor (Homo sapiens, UniProt P04150); settings: hela s3; also: in other assays of this panel Not Active means under 50% inhibition at 10 µM
T2 sequence (P04150 whole entry): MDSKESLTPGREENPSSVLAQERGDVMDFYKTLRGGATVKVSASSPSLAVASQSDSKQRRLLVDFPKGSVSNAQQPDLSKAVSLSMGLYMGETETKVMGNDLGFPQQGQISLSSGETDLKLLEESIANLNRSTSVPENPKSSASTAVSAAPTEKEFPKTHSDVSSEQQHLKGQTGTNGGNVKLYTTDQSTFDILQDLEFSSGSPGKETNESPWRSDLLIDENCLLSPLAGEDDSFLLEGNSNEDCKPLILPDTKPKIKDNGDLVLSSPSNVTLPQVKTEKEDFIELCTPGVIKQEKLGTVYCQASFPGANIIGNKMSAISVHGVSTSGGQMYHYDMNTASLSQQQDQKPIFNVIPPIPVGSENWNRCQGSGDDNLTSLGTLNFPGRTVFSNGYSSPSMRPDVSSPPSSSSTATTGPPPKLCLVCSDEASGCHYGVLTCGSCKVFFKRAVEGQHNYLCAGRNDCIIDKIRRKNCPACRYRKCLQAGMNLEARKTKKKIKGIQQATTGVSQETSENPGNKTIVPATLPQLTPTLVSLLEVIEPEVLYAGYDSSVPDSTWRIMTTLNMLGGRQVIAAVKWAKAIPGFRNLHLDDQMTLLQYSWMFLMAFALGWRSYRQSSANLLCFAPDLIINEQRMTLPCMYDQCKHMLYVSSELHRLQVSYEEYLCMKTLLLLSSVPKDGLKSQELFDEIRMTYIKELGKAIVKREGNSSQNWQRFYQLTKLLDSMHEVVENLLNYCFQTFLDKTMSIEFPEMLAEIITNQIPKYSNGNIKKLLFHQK

[6] = biological target: T3, Cytochrome P450 2A6 (Homo sapiens, UniProt P11509); settings: bti-tn-5b1-4; also: in other assays of this panel Not Active means under 50% inhibition at 10 µM
T3 sequence (P11509 whole entry): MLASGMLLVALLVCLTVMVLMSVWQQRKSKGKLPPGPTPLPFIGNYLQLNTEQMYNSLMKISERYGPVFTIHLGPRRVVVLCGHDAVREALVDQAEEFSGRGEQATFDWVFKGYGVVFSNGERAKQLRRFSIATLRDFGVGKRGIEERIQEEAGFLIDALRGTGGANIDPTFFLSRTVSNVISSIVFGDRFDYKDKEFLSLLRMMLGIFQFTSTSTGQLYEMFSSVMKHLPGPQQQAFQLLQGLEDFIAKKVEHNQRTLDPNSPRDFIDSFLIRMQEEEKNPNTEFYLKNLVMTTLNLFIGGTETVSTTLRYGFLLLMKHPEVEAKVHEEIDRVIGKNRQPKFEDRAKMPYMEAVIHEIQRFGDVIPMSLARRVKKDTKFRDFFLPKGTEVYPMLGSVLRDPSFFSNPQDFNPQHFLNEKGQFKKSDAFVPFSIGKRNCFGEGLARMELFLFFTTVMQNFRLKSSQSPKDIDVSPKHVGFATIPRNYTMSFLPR

[7] = DRUGMATRIX: beta-Lactamase enzyme inhibition (substrate: Nitrocefin); set-up: species or system Bacillus cereus; settings: Not Active = under 50% inhibition at 10 µM
[8] = biological target: Substance-P receptor (Homo sapiens, UniProt P25103); format: cell membranes, Membrane; settings: cho; also: in other assays of this panel Not Active means under 50% inhibition at 10 µM
Substance-P receptor, sequence (P25103 whole entry): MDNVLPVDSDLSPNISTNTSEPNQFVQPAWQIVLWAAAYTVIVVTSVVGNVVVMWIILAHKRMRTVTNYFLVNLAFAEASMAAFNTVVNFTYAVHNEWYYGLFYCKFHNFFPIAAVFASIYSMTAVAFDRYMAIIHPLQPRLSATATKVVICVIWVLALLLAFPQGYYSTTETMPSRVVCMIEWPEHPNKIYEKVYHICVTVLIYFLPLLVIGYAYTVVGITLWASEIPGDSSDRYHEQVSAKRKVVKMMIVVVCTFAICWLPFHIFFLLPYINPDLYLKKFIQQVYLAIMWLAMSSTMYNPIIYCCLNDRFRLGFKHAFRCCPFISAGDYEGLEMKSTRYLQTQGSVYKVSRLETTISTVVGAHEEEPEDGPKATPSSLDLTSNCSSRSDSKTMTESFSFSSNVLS

Mitogen-activated protein kinase 3, sequence (P27361 whole entry): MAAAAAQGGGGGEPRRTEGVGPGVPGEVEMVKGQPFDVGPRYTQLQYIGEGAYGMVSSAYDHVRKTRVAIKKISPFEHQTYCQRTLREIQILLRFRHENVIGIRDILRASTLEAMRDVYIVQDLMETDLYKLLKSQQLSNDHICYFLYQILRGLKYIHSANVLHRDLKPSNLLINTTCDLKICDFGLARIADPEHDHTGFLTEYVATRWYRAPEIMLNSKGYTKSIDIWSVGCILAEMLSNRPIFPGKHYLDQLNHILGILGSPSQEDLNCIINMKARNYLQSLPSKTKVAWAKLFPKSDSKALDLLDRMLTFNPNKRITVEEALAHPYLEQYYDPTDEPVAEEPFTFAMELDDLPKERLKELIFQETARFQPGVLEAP

Cc1c(F)c(N2CCNC(C)C2)cc2c1c(=O)c(C(=O)O)cn2C1CC1 (stereo not given) [GREPAFLOXACIN]
Not Active: IC50 [1] | IC50 [2] | IC50 [3] | IC50 [4] | IC50 [5] | IC50 [6] | Ki [6] | IC50 [7] | Ki [7] | IC50 [8]

NC[C@H]1O[C@H](O[C@H]2[C@H](O)[C@@H](O[C@H]3O[C@H](CO)[C@@H](O)[C@H](N)[C@H]3O)[C@H](N)C[C@@H]2N)[C@H](O)[C@@H](O)[C@@H]1O [KANAMYCIN]
Not Active: IC50 [1] | IC50 [2] | IC50 [3] | IC50 [4] | IC50 [5] | IC50 [6] | Ki [6] | IC50 [7] | Ki [7] | IC50 [8]

CC[C@H](C)C(=O)O[C@H]1C[C@@H](C)C=C2C=C[C@H](C)[C@H](CC[C@@H]3C[C@@H](O)CC(=O)O3)[C@H]21 [LOVASTATIN]
Not Active: IC50 [1] | IC50 [2] | IC50 [3] | IC50 [4] | IC50 [5] | IC50 [6] | Ki [6] | IC50 [7] | Ki [7] | IC50 [8]

Cc1cccc(Nc2ccccc2C(=O)O)c1C [MEFENAMIC ACID]
Not Active: IC50 [1] | IC50 [2] | IC50 [3] | IC50 [4] | IC50 [5] | IC50 [6] | Ki [6] | IC50 [7] | Ki [7] | IC50 [8]

COc1ccccc1OCC(O)COC(N)=O (stereo not given) [METHOCARBAMOL]
Not Active: IC50 [1] | IC50 [2] | IC50 [3] | IC50 [4] | IC50 [5] | IC50 [6] | Ki [6] | IC50 [7] | Ki [7] | IC50 [8]

COc1ccc2cc(CCC(C)=O)ccc2c1 [NABUMETONE]
Not Active: IC50 [1] | IC50 [2] | IC50 [3] | IC50 [4] | IC50 [5] | IC50 [6] | Ki [6] | IC50 [7] | Ki [7] | IC50 [8]

CNC(=C[N+](=O)[O-])NCCSCc1csc(CN(C)C)n1 [NIZATIDINE]
Not Active: IC50 [1] | IC50 [2] | IC50 [3] | IC50 [4] | IC50 [5] | IC50 [6] | Ki [6] | IC50 [7] | Ki [7] | IC50 [8]

C[C@]12C/C(=C/O)C(=O)C[C@@H]1CC[C@@H]1[C@@H]2CC[C@@]2(C)[C@H]1CC[C@]2(C)O [OXYMETHOLONE]
Not Active: IC50 [1] | IC50 [2] | IC50 [3] | IC50 [4] | IC50 [5] | IC50 [6] | Ki [6] | IC50 [7] | Ki [7] | IC50 [8]

OCCN1CCN(CCCN2c3ccccc3Sc3ccc(Cl)cc32)CC1 [PERPHENAZINE]
Not Active: IC50 [1] | IC50 [2] | IC50 [3] | IC50 [4] | IC50 [5] | IC50 [6] | Ki [6] | IC50 [7] | Ki [7] | IC50 [8]

CCCCC1C(=O)N(c2ccccc2)N(c2ccccc2)C1=O [PHENYLBUTAZONE]
Not Active: IC50 [1] | IC50 [2] | IC50 [3] | IC50 [4] | IC50 [5] | IC50 [6] | Ki [6] | IC50 [7] | Ki [7] | IC50 [8]

Cc1cccc(Nc2cc(Cl)nc(SCC(=O)O)n2)c1C [PIRINIXIC ACID]
Not Active: IC50 [1] | IC50 [2] | IC50 [3] | IC50 [4] | IC50 [5] | IC50 [6] | Ki [6] | IC50 [7] | Ki [7] | IC50 [8]
